This note sets out measurements from US20260265238A1, “COMPOUNDS AND PHARMACEUTICAL COMPOSITIONS THAT DEGRADE SWI/SNF-RELATED MATRIX-ASSOCIATED ACTIN-DEPENDENT REGULATOR OF CHROMATIN SUBFAMILY A” (Plexium, Inc., priority 2023, published 2026).

The target in assay [1] is T1, SMARCA2-HiBiT HeLa cells (protein which is expressed from the SMARCA2 gene) (Homo sapiens, UniProt P51531).
T1 construct: protein which is expressed from the SMARCA2 and SMARCA4 genes; host or cells: HeLa (SMARCA2-HiBiT engineered line)
T1 sequence (P51531 whole entry): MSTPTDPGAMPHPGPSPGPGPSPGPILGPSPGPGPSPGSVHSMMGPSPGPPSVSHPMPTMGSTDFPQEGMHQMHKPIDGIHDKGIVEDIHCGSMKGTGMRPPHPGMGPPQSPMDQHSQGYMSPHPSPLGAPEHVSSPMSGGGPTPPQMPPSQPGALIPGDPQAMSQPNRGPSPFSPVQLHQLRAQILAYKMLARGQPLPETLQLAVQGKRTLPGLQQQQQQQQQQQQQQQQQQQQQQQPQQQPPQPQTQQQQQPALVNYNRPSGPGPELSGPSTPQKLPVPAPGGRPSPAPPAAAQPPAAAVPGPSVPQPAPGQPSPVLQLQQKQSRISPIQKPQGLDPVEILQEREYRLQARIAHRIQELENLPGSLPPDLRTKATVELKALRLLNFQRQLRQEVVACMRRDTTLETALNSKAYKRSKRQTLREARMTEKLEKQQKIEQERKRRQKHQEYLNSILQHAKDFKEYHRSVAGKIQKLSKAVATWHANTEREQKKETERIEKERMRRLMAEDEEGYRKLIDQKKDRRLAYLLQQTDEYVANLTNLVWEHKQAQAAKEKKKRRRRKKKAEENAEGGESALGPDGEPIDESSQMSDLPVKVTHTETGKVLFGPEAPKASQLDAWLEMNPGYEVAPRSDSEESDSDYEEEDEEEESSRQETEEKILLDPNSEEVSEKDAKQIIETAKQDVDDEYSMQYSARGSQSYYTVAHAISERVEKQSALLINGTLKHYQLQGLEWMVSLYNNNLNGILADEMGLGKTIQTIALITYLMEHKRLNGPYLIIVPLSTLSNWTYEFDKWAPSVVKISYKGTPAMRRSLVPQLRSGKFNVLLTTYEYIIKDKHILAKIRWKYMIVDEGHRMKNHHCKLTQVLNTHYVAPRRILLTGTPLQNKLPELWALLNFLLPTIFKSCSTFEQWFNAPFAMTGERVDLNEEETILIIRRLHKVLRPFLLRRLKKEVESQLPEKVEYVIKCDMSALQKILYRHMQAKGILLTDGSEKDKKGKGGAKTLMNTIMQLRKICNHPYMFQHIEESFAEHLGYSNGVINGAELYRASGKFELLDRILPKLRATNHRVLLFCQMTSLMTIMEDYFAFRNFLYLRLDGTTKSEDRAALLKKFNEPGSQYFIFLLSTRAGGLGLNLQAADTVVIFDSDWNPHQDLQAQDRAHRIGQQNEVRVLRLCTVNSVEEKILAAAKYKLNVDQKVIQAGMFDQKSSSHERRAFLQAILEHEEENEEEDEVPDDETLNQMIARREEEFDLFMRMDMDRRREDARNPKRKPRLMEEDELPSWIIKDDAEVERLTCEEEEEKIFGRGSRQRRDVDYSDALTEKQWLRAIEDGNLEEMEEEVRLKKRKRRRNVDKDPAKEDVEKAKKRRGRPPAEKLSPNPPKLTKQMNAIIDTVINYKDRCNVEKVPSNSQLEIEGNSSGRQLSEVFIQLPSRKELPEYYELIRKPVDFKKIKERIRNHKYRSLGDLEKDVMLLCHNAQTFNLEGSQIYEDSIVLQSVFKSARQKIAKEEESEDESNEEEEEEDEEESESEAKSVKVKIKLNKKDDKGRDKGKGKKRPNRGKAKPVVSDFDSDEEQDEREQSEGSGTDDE
The assay is described as follows: SMARCA2 degradation assay (HiBiT-fusion HeLa cell line, 24 h, luminescence). The class given is cell-based. In a few lines:
(§1)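 HeLa cells carrying HiBiT-tagged SMARCA2 or SMARCA4 were seeded at 8,000 cells/well, allowed to attach overnight at 37° C., then given compounds in a 10-point dilution series (typically 10 μM to 300 pM) for 24 hours at 37° C. Remaining tagged protein was read by HiBiT lytic luminescence, and DC50s came from dose-response curves.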
Background: With HiBiT, luminescence reflects the tagged protein that the partner subunit can reach.

Assay [2] addresses T2, SMARCA4-HiBiT HeLa cells (protein which is expressed from the SMARCA4 gene) (Homo sapiens, UniProt P51532).
T2 construct: protein which is expressed from the SMARCA2 and SMARCA4 genes; host or cells: HeLa (SMARCA4-HiBiT engineered line)
As to the kind of experiment: SMARCA4 degradation assay (HiBiT-fusion HeLa cell line, 24 h, luminescence). Format: cell-based. In a few lines: as §1

T2 sequence (P51532 whole entry): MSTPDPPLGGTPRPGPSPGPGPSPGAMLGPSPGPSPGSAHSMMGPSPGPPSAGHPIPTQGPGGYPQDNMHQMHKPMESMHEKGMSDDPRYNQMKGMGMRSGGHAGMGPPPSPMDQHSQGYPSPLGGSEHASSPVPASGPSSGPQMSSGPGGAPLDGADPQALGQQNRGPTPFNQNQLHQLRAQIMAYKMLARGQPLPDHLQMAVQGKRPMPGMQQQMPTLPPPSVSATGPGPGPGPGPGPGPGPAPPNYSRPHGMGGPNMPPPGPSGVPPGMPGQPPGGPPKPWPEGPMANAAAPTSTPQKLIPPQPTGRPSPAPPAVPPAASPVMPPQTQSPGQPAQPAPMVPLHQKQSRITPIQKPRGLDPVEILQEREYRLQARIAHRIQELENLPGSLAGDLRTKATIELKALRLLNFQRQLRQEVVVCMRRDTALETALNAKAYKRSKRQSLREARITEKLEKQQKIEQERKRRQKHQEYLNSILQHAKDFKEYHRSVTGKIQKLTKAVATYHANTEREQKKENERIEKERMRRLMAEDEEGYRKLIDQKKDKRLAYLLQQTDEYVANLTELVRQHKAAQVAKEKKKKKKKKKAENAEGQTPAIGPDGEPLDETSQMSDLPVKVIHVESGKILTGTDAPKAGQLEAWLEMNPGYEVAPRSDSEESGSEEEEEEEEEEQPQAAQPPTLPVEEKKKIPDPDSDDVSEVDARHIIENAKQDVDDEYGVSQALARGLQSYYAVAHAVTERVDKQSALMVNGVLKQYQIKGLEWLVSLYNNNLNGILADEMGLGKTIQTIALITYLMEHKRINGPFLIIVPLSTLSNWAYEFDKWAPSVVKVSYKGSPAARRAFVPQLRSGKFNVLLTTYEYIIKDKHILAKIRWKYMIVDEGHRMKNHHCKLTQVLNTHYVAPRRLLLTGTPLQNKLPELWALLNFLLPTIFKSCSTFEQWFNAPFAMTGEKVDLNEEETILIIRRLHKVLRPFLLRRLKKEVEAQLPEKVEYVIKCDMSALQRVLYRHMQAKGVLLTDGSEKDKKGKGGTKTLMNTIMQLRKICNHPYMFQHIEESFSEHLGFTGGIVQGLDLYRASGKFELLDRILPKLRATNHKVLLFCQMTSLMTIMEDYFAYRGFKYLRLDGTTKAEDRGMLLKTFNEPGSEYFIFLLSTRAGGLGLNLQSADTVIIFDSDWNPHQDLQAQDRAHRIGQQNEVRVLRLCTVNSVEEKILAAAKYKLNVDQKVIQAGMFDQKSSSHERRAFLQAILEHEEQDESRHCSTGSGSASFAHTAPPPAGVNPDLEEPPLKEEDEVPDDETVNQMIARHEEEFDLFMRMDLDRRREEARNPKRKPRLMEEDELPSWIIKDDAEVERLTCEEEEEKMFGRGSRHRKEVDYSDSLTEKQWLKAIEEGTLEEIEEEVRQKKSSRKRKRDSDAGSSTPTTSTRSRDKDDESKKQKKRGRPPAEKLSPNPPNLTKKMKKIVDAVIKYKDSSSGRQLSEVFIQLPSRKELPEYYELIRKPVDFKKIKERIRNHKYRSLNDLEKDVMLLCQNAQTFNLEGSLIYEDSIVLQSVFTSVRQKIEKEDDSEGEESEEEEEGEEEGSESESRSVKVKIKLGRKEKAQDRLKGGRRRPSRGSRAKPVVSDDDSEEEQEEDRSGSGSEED

Broadly, the DC50 is the concentration at which degradation of the target reaches its halfway point. Usually inhibition stands for the relative decrease from the control value, in per cent. Lower therefore signals little suppression. On to `C[C@@H]1CCN(c2cc(-c3ccccc3O)nnc2N)CCN1c1ccnc(C#CCN2CC3CC2C3)c1` [Compound P-392, 0-{5-[(R)-4-(2-{3-(2-azabicyclo[2.1.1]hex-2-yl)-1-propynyl}-4-pyridyl)-5-methyl-1,4-diazepan-1-yl]-6-amino-3-pyridazinyl}phenol], for which, in assay [1], the DC50 was in the range of 50 to 500 nM and the “SMARCA2 % Degradation @ 1 μM” value is reported as “+++ (+++=>70%)”. In assay [2], this compound showed a DC50 of 50 to 500 nM and an inhibition at 1 µM greater than 70%.
Turning to `C[C@@H]1CCN(c2cc(-c3ccccc3O)nnc2N)CCN1c1ccc(C#N)c(C#CCN2CC3CC2C3)n1` [Compound P-393, 6-{(R)-4-[3-amino-6-(o-hydroxyphenyl)-4-pyridazinyl]-7-methyl-1,4-diazepan-1-yl}-2-{3-(2-azabicyclo[2.1.1]hex-2-yl)-1-propynyl} nicotinonitrile], in assay [1], the DC50 is less than 50 nM and the “SMARCA2 % Degradation @ 1 μM” value is on record as “+++ (+++=>70%)”. In assay [2], this compound displayed a DC50 of less than 50 nM and an inhibition at 1 µM of 30 to 70%.
As for `C[C@@H]1CCN(c2cc(-c3ccccc3O)nnc2N)CCN1c1ccc(C(F)(F)F)c(C#CCN2CCCC2)n1` [Compound P-394], the 50% degradation concentration (DC50) in assay [1] and in assay [2] was 500 to 5000 nM in each case. The “SMARCA2 % Degradation @ 1 μM” value in assay [1] is on record as “+ (+=<30%)”.
For `C[C@@H]1CCN(c2cc(-c3ccccc3O)nnc2N)CCN1c1ccc(C(F)(F)F)c(C#CCN(C)C)n1` [Compound P-395, 0-{5-[(R)-4-{6-[3-(dimethylamino)-1-propynyl]-5-(trifluoromcthyl)-2-pyridyl}-5-methyl-1,4-diazepan-1-yl]-6-amino-3-pyridazinyl}phenol], the DC50 in assay [1] is 500 to 5000 nM; in assay [2], greater than 5000 nM.
As to `C[C@@H]1CCN(c2cc(-c3ccccc3O)nnc2N)CCN1c1ccnc(C#CC2CC(F)(F)C2)c1` [Compound P-396, 0-{5-[(R)-4-{2-[2-(3,3-difluorocyclobutyl)ethynyl]-4-pyridyl}-5-methyl-1,4-diazepan-1-yl]-6-amino-3-pyridazinyl}phenol], in assay [1], the 50% degradation concentration (DC50) lay in the range of 50 to 500 nM and the “SMARCA2 % Degradation @ 1 μM” value is listed as “+++ (+++=>70%)”. In assay [2], this compound displayed a half-maximal degradation concentration (DC50) of 50 to 500 nM and an inhibition at 1 µM of 30 to 70%.
Consider `C[C@@H]1CCN(c2cc(-c3ccccc3O)nnc2N)CCN1c1ccnc(C#CCO)c1` [Compound P-397, 0-(5-{(R)-4-[2-(3-hydroxy-1-propynyl)-4-pyridyl]-5-methyl-1,4-diazepan-1-yl}-6-amino-3-pyridazinyl)phenol], for which, in assay [1], the half-maximal degradation concentration (DC50) fell in the range of 50 to 500 nM and the “SMARCA2 % Degradation @ 1 μM” value is recorded as “++ (++=30-70%)”. In assay [2], this compound gave a DC50 of 500 to 5000 nM and an inhibition at 1 µM of 30 to 70%.
For the compound `COCC#Cc1cc(N2CCN(c3cc(-c4ccccc4O)nnc3N)CC[C@H]2C)ccn1` [Compound P-398, 0-(5-{(R)-4-[2-(3-methoxy-1-propynyl)-4-pyridyl]-5-methyl-1,4-diazepan-1-yl}-6-amino-3-pyridazinyl)phenol], in assay [1], the DC50 was in the range of 50 to 500 nM and the “SMARCA2 % Degradation @ 1 μM” value is listed as “++ (++=30-70%)”. In assay [2], this compound displayed a DC50 of 500 to 5000 nM and an inhibition at 1 µM of 30 to 70%.
For `CC(C#Cc1cc(N2CCN(c3cc(-c4ccccc4O)nnc3N)CC[C@H]2C)ccn1)N(C)C` (stereo partly drawn) [Compound P-399, 0-{5-[(R)-4-{2-[3-(dimcthylamino)-1-butynyl]-4-pyridyl}-5-methyl-1,4-diazepan-1-y1]-6-amino-3-pyridazinyl}phenol] the same measures were less than 50 nM, “++ (++=30-70%)”, less than 50 nM and 30 to 70%.
`COCC#Cc1nc(N2CCN(c3cc(-c4ccccc4O)nnc3N)CC[C@H]2C)ccc1C#N` [Compound P-400, 6-{(R)-4-[3-amino-6-(o-hydroxyphenyl)-4-pyridazinyl]-7-methyl-1,4-diazepan-1-yl}-2-(3-methoxy-1-propynyl)nicotinonitrile]: the results for the DC50 in assay [1] and in assay [2] were 500 to 5000 nM and greater than 5000 nM, respectively.
Regarding `C[C@@H]1CCN(c2cc(-c3ccccc3O)nnc2N)CCN1c1ccnc(C#C[C@@H](C)O)c1` [Compound P-401, 0-{5-[(R)-4-{2-[(R)-3-hydroxy-1-butynyl]-4-pyridyl}-5-methyl-1,4-diazepan-1-yl]-6-amino-3-pyridazinyl}phenol], in assay [1], the DC50 fell in the range of 50 to 500 nM and the “SMARCA2 % Degradation @ 1 μM” value was “+++ (+++=>70%)”. Further, in assay [2], the DC50 is 50 to 500 nM and the inhibition at 1 µM is greater than 70%.
On to `N#Cc1ccc(N2C3CCC2CN(c2cnnc(-c4ccccc4O)c2)C3)nc1C#CCN1CC[C@H](F)C1` [Compound P-402, 2-{3-[(S)-3-fluoro-1-pyrrolidinyl]-1-propynyl}-6-{3-[6-(o-hydroxyphenyl)-4-pyridazinyl]-3,8-diazabicyclo[3.2.1]oct-8-yl}nicotinonitrile], for which, in assay [1], the DC50 fell in the range of 50 to 500 nM and the “SMARCA2 % Degradation @ 1 μM” value was “++ (++=30-70%)”. For the same compound, in assay [2], the DC50 lay within 50 to 500 nM and the inhibition at 1 µM is less than 30%.
In the case of `N#Cc1ccc(N2C3CCC2CN(c2cnnc(-c4ccccc4O)c2)C3)nc1C#CCN1CC(F)(F)C1` [Compound P-403, 2-[3-(3,3-difluoro-1-azetidinyl)-1-propynyl]-6-{3-[6-(o-hydroxyphenyl)-4-pyridazinyl]-3,8-diazabicyclo[3.2.1]oct-8-yl} nicotinonitrile], the DC50 in assay [1] is 500 to 5000 nM; in assay [2] it was greater than 5000 nM.
Regarding `C[C@@H]1CCN(c2cc(-c3ccccc3O)nnc2N)CCN1c1ccnc(C#CCN2C[C@@H]3C[C@H]2CO3)c1` [Compound P-404, 0-{5-[(R)-4-[2-(3-{(1S,4S)-2-oxa-5-azabicyclo[2.2.1]hept-5-yl}-1-propynyl)-4-pyridyl]-5-methyl-1,4-diazepan-1-yl]-6-amino-3-pyridazinyl}phenol], in assay [1], the DC50 lay within 50 to 500 nM and the “SMARCA2 % Degradation @ 1 μM” value is reported as “++ (++=30-70%)”. In addition, in assay [2], the DC50 fell in the range of 50 to 500 nM and the inhibition at 1 µM was 30 to 70%.
For `C[C@@H]1CCN(c2cc(-c3ccccc3O)nnc2N)CCN1c1ccnc(C#CCn2cncn2)c1C#N` [Compound P-405, 4-{(R)-4-[3-amino-6-(0-hydroxyphenyl)-4-pyridaziny1]-7-methyl-1,4-diazepan-1-yl}-2-[3-(1H-1,2,4-triazol-1-yl)-1-propynyl]nicotinonitrile], the DC50 in assay [1] is 500 to 5000 nM; in assay [2], greater than 5000 nM.
Consider `C[C@@H]1CCN(c2cc(-c3ccccc3O)nnc2N)CCN1c1ccnc(C#CCN(C)C)c1C#N` [Compound P-406, 4-{(R)-4-[3-amino-6-(0-hydroxyphenyl)-4-pyridazinyl]-7-methyl-1,4-diazepan-1-yl}-2-[3-(dimethylamino)-1-propynyl]nicotinonitrile], for which, in assay [1], the half-maximal degradation concentration (DC50) was in the range of 500 to 5000 nM and the “SMARCA2 % Degradation @ 1 μM” value was “++ (++=30-70%)”. Besides, in assay [2], the DC50 was in the range of 500 to 5000 nM and the inhibition at 1 µM fell in the range of 30 to 70%.
In the case of `CC(C#Cc1nc(N2CCN(c3cc(-c4ccccc4O)nnc3N)CC[C@H]2C)ccc1C#N)N(C)C` (stereo partly drawn) [Compound P-407, 6-{(R)-4-[3-amino-6-(o-hydroxyphenyl)-4-pyridazinyl]-7-methyl-1,4-diazepan-1-yl}-2-[3-(dimethylamino)-1-butynyl]nicotinonitrile], in assay [1], the DC50 is less than 50 nM and the “SMARCA2 % Degradation @ 1 μM” value is “++ (++=30-70%)”. In assay [2], this compound returned a DC50 of less than 50 nM and an inhibition at 1 µM of less than 30%.
Turning to `C[C@@H]1CCN(c2cc(-c3ccccc3O)nnc2N)CCN1c1cc(C#CCn2ccnc2)ncc1Cl` [Compound P-408, 0-{5-[(R)-4-{5-chloro-2-[3-(1-imidazolyl)-1-propynyl]-4-pyridyl}-5-methyl-1,4-diazepan-1-yl]-6-amino-3-pyridazinyl} phenol], in assay [1], the DC50 fell in the range of 50 to 500 nM and the “SMARCA2 % Degradation @ 1 μM” value is given as “++ (++=30-70%)”. In assay [2], this compound yielded a 50% degradation concentration (DC50) of 50 to 500 nM and an inhibition at 1 µM of 30 to 70%.
For `C[C@@H]1CCN(c2cc(-c3ccccc3O)nnc2N)CCN1c1cc(C#CCN(C)C)ncc1Cl` [Compound P-409, 0-{5-[(R)-4-{5-chloro-2-[3-(dimethylamino)-1-propynyl]-4-pyridyl}-5-methyl-1,4-diazepan-1-yl]-6-amino-3-pyridazinyl}phenol], in assay [1], the DC50 fell in the range of 50 to 500 nM and the “SMARCA2 % Degradation @ 1 μM” value is recorded as “+ (+=<30%)”. Moreover, in assay [2], the half-maximal degradation concentration (DC50) lay in the range of 50 to 500 nM.
With `C[C@@H]1CCN(c2cnnc(-c3ccccc3O)c2)CCN1c1ccc(C#N)c(C#CCNC(=O)c2cc3ncccn3n2)n1` [Compound P-410, N-[3-(6-{(R)-4-[6-(0-hydroxyphenyl)-4-pyridazinyl]-7-methyl-1,4-diazepan-1-yl}-3-cyano-2-pyridyl)-2-propynyl]-1,4,7a-triaza-2-indenecarboxamide], the DC50 in assay [1] and in assay [2] was greater than 5000 nM throughout.
As for `C[C@H]1CCN(c2cc(-c3ccccc3O)nnc2N)CCN1c1ccc(C#N)c(C#CCN2CC[C@H](F)C2)n1` [Compound P-411, 6-{(S)-4-[3-amino-6-(o-hydroxyphenyl)-4-pyridazinyl]-7-methyl-1,4-diazepan-1-yl}-2-{3-[(S)-3-fluoro-1-pyrrolidinyl]-1-propynyl} nicotinonitrile], in assay [1], the DC50 fell in the range of 50 to 500 nM and the “SMARCA2 % Degradation @ 1 μM” value is recorded as “++ (++=30-70%)”. Further, in assay [2], the DC50 fell in the range of 50 to 500 nM and the inhibition at 1 µM was less than 30%.
Take `C[C@@H]1CCN(c2cc(-c3ccccc3O)nnc2N)CCN1c1ccc(C#N)c(C#CCN2CC(F)(F)C2)n1` [Compound P-412, 6-{(R)-4-[3-amino-6-(0-hydroxyphenyl)-4-pyridazinyl]-7-methyl-1,4-diazepan-1-yl}-2-[3-(3,3-difluoro-1-azetidinyl)-1-propynyl]nicotinonitrile]: in assay [1], the DC50 lay within 50 to 500 nM and the “SMARCA2 % Degradation @ 1 μM” value is reported as “++ (++=30-70%)”. In assay [2], this compound yielded a DC50 of 50 to 500 nM and an inhibition at 1 µM of less than 30%.
